The structures appear in SMILES notation. Bounds are passed on as bounds.

The values below come from publication PMC8746528, “Novel Substituted Purine Isosteres: Synthesis, Structure-Activity Relationships and Cytotoxic Activity Evaluation” (Molecules, 2021).

Series [1] relates to HCT116 colon cancer cell line. Put plainly: MTT cell viability assay, HCT116. In kind it is cell-based. The note with it: Homo sapiens, HCT-116, treatment 72 h and 96 h, mean ± SD of three experiments. How it is done:
(§1) The human HCT116 colon cancer cell line and PC-3 prostate cancer cell line were obtained from the American Type Cell Culture (ATCC, Bethesda, Md). Both cell lines were grown in 75 cm^2 culture flasks at 37 °C in 5% CO2 using Roswell Park Memorial Institute 1640 medium (RPMI 1640, Gibco) and Dulbecco’s modified Eagle’s medium F/12 (DMEM/F-12, Gibco), respectively, containing 10% fetal bovine serum (FBS, Gibco). To test the inhibitory activities of compounds using a cell-based assay, MTT assay was performed for cell viability, as described previously. Briefly, HCT116 cells were plated at a density of 1500 per well, while PC-3 cells were plated at a density of 750 per well in a 96-well plate. After 24 h, cells were treated with the indicated compounds in a dose-dependent manner for 72 h and 96 h (all tested compounds provided clear solutions). MTT [3-(4,5-dimethylthiazol-2-yl)-2,5-diphenyltetrazolium bromide] (Sigma M-5655) was added at a final concentration of 0.5 mg/mL directly to each well for 4 h at 37 °C. The medium was aspirated, and the blue MTT formazan precipitate was dissolved in dimethyl sulfoxide (DMSO). Absorbance was determined in a Powerwave microplate spectrophotometer (Biotek Instruments, Inc.) at 540 nm. Viable cell numbers were determined by tetrazolium conversion to its formazan dye. The IC50 was calculated by Microsoft Excel equation and confirmed by GraphPad Prism (7.0). Each experiment was performed in triplicate and mean values ± SD are reported.

Series [2] has as its system PC-3 prostate cancer cell line. Put plainly: MTT cell viability assay, PC-3. In kind it is cell-based. The note with it: Homo sapiens, treatment 72 h and 96 h, mean ± SD of three experiments. How it is done:
as §1

For series [3], the system named is PC-3 cells. Briefly: Annexin V-7AAD apoptosis assay. In kind it is cell-based, human. The note with it: for apoptotic nuclei: PC-3, 72 h, compound at its IC50, AnnexinV-7AAD staining, vehicle 3.5%. The procedure: (§2) For cell cycle analysis, cell culture supernatants and attached cells were collected, centrifuged, washed in PBS, fixed in 50% ethanol and stained with an RNase-containing propidium iodide solution (50 μg/mL) (all reagents from Sigma). For cell apoptosis assay, cells were harvested and stained with Annexin V binding buffer, Annexin V–FITC and 7-AAD (Annexin V-FITC Apoptosis Detection Kit, BD Systems). DNA content was analyzed on a BD Accuri C6 Flow Cytometer using the BD CSampler software (BD Biosciences, USA). Non-apoptotic events were used to calculate the percentage of cells distributed in each phase. A p value < 0.05 was considered to be statistically significant (Student’s t-test).

The test system of series [4] is PC-3 cells. Briefly: DNA staining (propidium iodide) and flow cytometric cell cycle analysis. It is filed as cell-based, human. The settings on record: for Cell cycle phase distribution G0/G1 / Cell cycle phase distribution G2/M / Cell cycle phase distribution S: compound at its IC50. How it is done:
as §2

Series [5] deals with normal human fibroblasts (WI-38). Briefly: MTT cytotoxicity towards normal fibroblasts. The settings on record: for Selectivity Index HCT116: SI = IC50 non cancer cell (WI-38)/IC50 cancer cell (HCT116); for Selectivity Index PC-3: SI = IC50 non cancer cell (WI-38)/IC50 cancer cell (PC-3); for cytotoxicity to normal cells in words / IC50: WI-38; for IC50: MTT, normal human fibroblasts. It is filed as cell-based. How it is done:
as §1
Figure 1 Dose-response curves for the administration of 14b, 26b, 35b on HCT116, PC-3 and WI-38 cells, as assessed by the MTT assay. Results are expressed as a percentage of controls. Statistical analysis was performed in triplicate determination at p < 0.05.

Series [6] relates to a variety of cancer cell lines. Also on record: method as in PMID 27720292. The note with it: cited from earlier work.
Where [7] appears, read: positive control at 25 nM, PC-3.

As to `COc1cccc2c1C(=O)c1c(O)c3c(c(O)c1C2=O)C[C@@](O)(C(=O)CO)C[C@@H]3O[C@H]1C[C@H](N)[C@H](O)[C@H](C)O1` [Dox, Doxorubicin, reference compound], the figures for the IC50 in series [1] and in series [2] were 95 ± 10 nM and 25 ± 4 nM, respectively. In the series with PC-3 cells [3] (setting [7]), this compound displayed an induction of apoptosis of 28%. The compound further displayed a G2/M phase blockade in the series with PC-3 cells [4] (setting [7]) of 58%.

`Fc1cccc(-c2n[nH]c3c(Nc4ccccc4)ncnc23)c1` [35b, 3-(3-Fluorophenyl)-Ν-phenyl-1H-pyrazolo[4,3-d]pyrimidin-7-amine] yielded a melting point of 237 to 238 °C. In series [5], the “Selectivity Index HCT116” value is recorded as 5.3, the “Selectivity Index PC-3” value was determined as 22.2, the “cytotoxicity to normal cells in words” value is reported as “non-cytotoxic to the normal cell line” and the IC50 worked out at 12200 ± 1000 nM. This compound also gave an IC50 in series [1] of 2300 ± 200 nM. Also, the IC50 in series [2] was 550 ± 50 nM. The compound also registered an apoptotic nuclei with PC-3 cells [3] of 11.5%. In the series with PC-3 cells [4] (PC-3, 72 h), the “Cell cycle phase distribution G0/G1” value is listed as 58.9 (±0.6) %, the “Cell cycle phase distribution G2/M” value was 24.9 (±2.4) % and the “Cell cycle phase distribution S” value is reported as 16.3 (±1.8) %.

For `Fc1cccc(-c2c[nH]c3c(Nc4ccccc4)ncnc23)c1` [26b, 7-(3-Fluorophenyl)-Ν-phenyl-5H-pyrrolo[3,2-d]pyrimidin-4-amine], the melting point was greater than 250 °C. Moreover, in series [5], the “Selectivity Index HCT116” value is 8.3, the “Selectivity Index PC-3” value is 8.7, the “cytotoxicity to normal cells in words” value is listed as “non-cytotoxic to the normal cell line” and 17000 ± 1500 nM corresponded to half-maximal inhibition (IC50). The same compound registered an IC50 in series [1] of 2050 ± 50 nM. This compound yielded an IC50 in series [2] of 1950 ± 50 nM. Further, the apoptotic nuclei in the series with PC-3 cells [3] was 17.7%. Moreover, in the series with PC-3 cells [4] (PC-3, 72 h), the “Cell cycle phase distribution G0/G1” value is 54.4 (±1.1) %, the “Cell cycle phase distribution G2/M” value is on record as 24.9 (±1.6) % and the “Cell cycle phase distribution S” value was 20.7 (±02.7) %.

As to `Fc1cccc(-c2c[nH]c3c(Nc4ccccc4)nccc23)c1` [14b, 3-(3-Fluorophenyl)-Ν-phenyl-1H-pyrrolo[2,3-c]pyridin-7-amine], the melting point was 168 to 169 °C. In addition, in series [5], the “Selectivity Index HCT116” value worked out at 222, the “Selectivity Index PC-3” value was 363, the “cytotoxicity to normal cells in words” value is “practically non-toxic against the normal cell line” and the IC50 was 20000 ± 400 nM. Further, in series [5] (normal cell line WI-38 vs both cancer cell lines), the selectivity index result is on record as “higher than 200”. In series [1], the IC50 was found to be 90 ± 10 nM. In series [2], this compound registered an IC50 of 55 ± 15 nM. For the same compound, the apoptotic nuclei with PC-3 cells [3] amounted to 26.5%. In addition, in the series on PC-3 cells [4] (PC-3, 72 h), the “cell-cycle perturbation in words” value is “statistically significant accumulation of PC-3 cells at G2/M phase”, the “Cell cycle phase distribution G0/G1” value is listed as 48.7 (±0.6) %, the “Cell cycle phase distribution G2/M” value was 30.8 (±0.8) % and the “Cell cycle phase distribution S” value is 20.5 (±1.4) %.

Consider `COc1cc(Nc2nccc3c(-c4ccccc4)n[nH]c23)cc(OC)c1OC` [3-phenyl-7-(3,4,5-trimethoxyphenyl)aminopyrazolo[3,4-c]pyridine], for which, in series [6], the IC50 values result is “medium to high nM range”.
